“And” between values parts separate entries of the source, which are not always exact repeats. Equal values may be shown once.

One data set relates to mast cells. As to the kind of experiment: Mast cell degranulation after crushing of the sciatic nerve (in vivo, histological count). Further details: species or system Male Spraugue Dawley Rats. To be noted: 20 mg/kg intraperitoneally for 15 days, on soy lecithin liposomes, sciatic nerve compression at 16th day, sacrifice three hours after, control average 61.4. The procedure:
In order to verify the pharmacological activity of N-acyl derivatives of aminoalcohols, and in particular of N-PEA, under conditions of traumatic noxa due to crushing of the sciatic nerve, and therefore able to induce mast cells degranulation, the following "in vivo" biologic test was carried out.
Male Spraugue Dawley Rats weighing about 200 -250 g were divided into two groups and subjected for 15 days to two different treatments: the first group, being the control group, was intraperitoneally treated with a solution of liposomes of soy lecithin, whereas the second group was intraperitoneally treated with 20 mg/kg N-PEA vehiculated on soy lecithin liposomes.
At the 16th day the animals were subjected to a bland general anesthesia with ethyl ether, thereby proceeding to the operation of the nerve lesion as hereinbelow described. The left sciatic nerve was exposed just in the spot of its entrance to the haunch, by operating a dissection of the muscular bands. The thus exposed sciatic nerve was then repeatedly compressed as closest as possible to its origin, by using a crushing forceps. The wound was temporarily sewn up and the animals were left to recover.
Three hours after the sciatic nerve compression lesion the animals were sacrificed in order to take the sciatic nerve samples and to fix it for the histological analysis with a mixture of acetic acid and formalin. […]

Data set [1] in a line: Physical chemical characteristics: solubility. In kind it is physicochemical. The source says:
The physical chemical characteristics of the N-PEA product synthesized according to the present example were the following : […]

Take `CCCCCCCCCCCCCCCC(=O)NCCO` [N-PEA, N-(2-hydroxyethyl)hexadecanamide]: the “Number of degranulated cells on a total of 100 examined cells, average” value in the data set on mast cells (average of 5 rats) turned out to be 36.6. Further, the “Number of degranulated cells on a total of 100 examined cells” value in the data set on mast cells (individual rats, 20 mg/kg) was 35 and 44 and 37 and 25 and 42. Moreover, the solubility in water result in data set [1] is “insoluble”. In data set [1] (solvents in which soluble), the “solubility in organic solvent” value is listed as “Hot MetOH, CHCl3, DMSO”. In addition, the “solubility in aqueous vehicles” value in data set [1] (stated as the reason for choosing the liposome vehicle) is reported as “poor solubility”.
